From patent US20250382332A1, “NOVEL ALPHA-FACTOR BASED PEPTIDES WITH ANTIFUNGAL ACTIVITY” (INVAIO SCIENCES, INC., priority 2024, published 2025)
Peptide text beside a SMILES is read from it.

Tested on: Botrytis cinerea (B05.10)
Experiment: Resazurin antifungal assay of 180 alpha-factor peptide variants towards Botrytis (Example 2)
Type: cell-based
Settings: % inhibition of fungal growth, Botrytis conidia, resazurin; for Inhibition at 10 μM: peptide 10 μM; for Inhibition at 20 μM: peptide 20 μM; for Inhibition at 50 μM: peptide 50 μM; for Inhibition at 100 μM: peptide 100 μM
Summary of the method: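 Resazurin viability read-out (570/620 nm fluorescence) after a 24 h, 20° C incubation of B05.10 conidia, 5000 per well, with peptide at final 10-100 μM. Growth inhibition (%) was derived by subtracting conidia-only fluorescence; four replicates per treatment.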

SMILES	Inhibition at 10 μM	Inhibition at 20 μM	Inhibition at 50 μM	Inhibition at 100 μM
CSCC[C@H](NC(=O)[C@@H]1CCCN1C(=O)[C@H](CCC(N)=O)NC(=O)CNC(=O)[C@H](CC(N)=O)NC(=O)[C@H](CCCCN)NC(=O)[C@H](CC(C)C)NC(=O)[C@H](CO)NC(=O)CNC(=O)[C@H](Cc1c[nH]c2ccccc12)NC(=O)[C@H](CCCCN)NC(=O)[C@@H](N)Cc1c[nH]c2ccccc12)C(=O)N[C@@H](Cc1ccc(O)cc1)C(=O)O [compound 98] (H-WKWGSLKNGQPMY-OH; N-terminus and C-terminus assumed)	<90%	<90%	95.59%	100%
CC[C@H](C)[C@H](NC(=O)[C@H](CCCCN)NC(=O)[C@H](CC(C)C)NC(=O)[C@H](Cc1c[nH]c2ccccc12)NC(=O)[C@H](Cc1c[nH]cn1)NC(=O)[C@@H](N)Cc1c[nH]c2ccccc12)C(=O)N[C@@H](Cc1c[nH]c2ccccc12)C(=O)N1CCC[C@H]1C(=O)NCC(=O)N[C@@H](CCC(N)=O)C(=O)N1CCC[C@H]1C(=O)N[C@@H](CCSC)C(=O)N[C@@H](Cc1ccc(O)cc1)C(=O)O [compound 99] (H-WHWLKIWPGQPMY-OH; N-terminus and C-terminus assumed)	<90%	<90%	94.66%	100%
CSCC[C@H](NC(=O)[C@@H]1CCCN1C(=O)[C@H](CCC(N)=O)NC(=O)CNC(=O)[C@@H]1CCCN1C(=O)[C@H](CCCCN)NC(=O)[C@H](Cc1ccccc1)NC(=O)[C@H](CC(N)=O)NC(=O)[C@H](CC(C)C)NC(=O)[C@H](Cc1ccc(O)cc1)NC(=O)[C@H](CCCCN)NC(=O)[C@@H](N)Cc1c[nH]c2ccccc12)C(=O)N[C@@H](Cc1ccc(O)cc1)C(=O)O [compound 100] (H-WKYLNFKPGQPMY-OH; N-terminus and C-terminus assumed)	<90%	<90%	93.45%	100%
CSCC[C@H](NC(=O)[C@@H]1CCCN1C(=O)[C@H](CCC(N)=O)NC(=O)CNC(=O)[C@@H]1CCCN1C(=O)[C@H](CCCCN)NC(=O)[C@H](Cc1ccccc1)NC(=O)[C@H](CCCNC(=N)N)NC(=O)[C@H](CC(C)C)NC(=O)[C@@H](NC(=O)[C@H](Cc1c[nH]cn1)NC(=O)[C@@H](N)Cc1c[nH]c2ccccc12)C(C)C)C(=O)N[C@@H](Cc1ccc(O)cc1)C(=O)O [compound 101] (H-WHVLRFKPGQPMY-OH; N-terminus and C-terminus assumed)	<90%	<90%	90.50%	100%
CSCC[C@H](NC(=O)[C@@H]1CCCN1C(=O)[C@H](CCC(N)=O)NC(=O)CNC(=O)[C@@H]1CCCN1C(=O)[C@H](CCCCN)NC(=O)[C@H](CC(C)C)NC(=O)[C@@H](NC(=O)[C@H](CC(C)C)NC(=O)[C@H](Cc1ccc(O)cc1)NC(=O)[C@H](Cc1c[nH]cn1)NC(=O)[C@@H](N)CCCCN)[C@@H](C)O)C(=O)N[C@@H](Cc1ccc(O)cc1)C(=O)O [compound 102] (H-KHYLTLKPGQPMY-OH; N-terminus and C-terminus assumed)	<90%	<90%	<90%	98.51%
CSCC[C@H](NC(=O)[C@@H]1CCCN1C(=O)[C@H](CCC(N)=O)NC(=O)CNC(=O)[C@@H]1CCCN1C(=O)[C@H](CCCCN)NC(=O)[C@H](CC(C)C)NC(=O)[C@H](C)NC(=O)[C@H](CC(C)C)NC(=O)[C@H](Cc1ccc(O)cc1)NC(=O)[C@H](Cc1c[nH]cn1)NC(=O)[C@@H](N)CCCCN)C(=O)N[C@@H](Cc1ccc(O)cc1)C(=O)O [compound 103] (H-KHYLALKPGQPMY-OH; N-terminus and C-terminus assumed)	<90%	<90%	<90%	98.77%
CC[C@H](C)[C@H](NC(=O)CNC(=O)[C@H](CCCNC(=N)N)NC(=O)[C@@H](N)CCCCN)C(=O)N[C@@H](CC(N)=O)C(=O)N[C@@H](CC(C)C)C(=O)N[C@@H](CCCCN)C(=O)N1CCC[C@H]1C(=O)NCC(=O)N[C@@H](CCC(N)=O)C(=O)N1CCC[C@H]1C(=O)N[C@@H](CCSC)C(=O)N[C@@H](Cc1ccc(O)cc1)C(=O)O [compound 104] (H-KRGINLKPGQPMY-OH; N-terminus and C-terminus assumed)	<90%	<90%	<90%	99.59%
CC[C@H](C)[C@H](NC(=O)[C@H](Cc1c[nH]cn1)NC(=O)[C@@H](N)Cc1c[nH]c2ccccc12)C(=O)N[C@@H](CC(C)C)C(=O)N[C@@H](CCCNC(=N)N)C(=O)N[C@@H](Cc1ccccc1)C(=O)N[C@@H](CCCCN)C(=O)N[C@@H](CC(N)=O)C(=O)NCC(=O)N[C@@H](CCSC)C(=O)N1CCC[C@H]1C(=O)N[C@@H](CCSC)C(=O)N[C@@H](Cc1ccc(O)cc1)C(=O)O [compound 105] (H-WHILRFKNGMPMY-OH; N-terminus and C-terminus assumed)	<90%	<90%	<90%	100%
CSCC[C@H](NC(=O)[C@@H]1CCCN1C(=O)[C@H](CCC(=O)O)NC(=O)CNC(=O)[C@H](CCCCN)NC(=O)[C@H](CCCCN)NC(=O)[C@H](CC(C)C)NC(=O)[C@H](CCC(N)=O)NC(=O)[C@@H](NC(=O)[C@H](Cc1c[nH]c2ccccc12)NC(=O)[C@H](Cc1c[nH]cn1)NC(=O)[C@@H](N)Cc1c[nH]c2ccccc12)C(C)C)C(=O)N[C@@H](Cc1ccc(O)cc1)C(=O)O [compound 106] (H-WHWVQLKKGEPMY-OH; N-terminus and C-terminus assumed)	<90%	<90%	<90%	100%
CSCC[C@H](NC(=O)[C@@H]1CCCN1C(=O)[C@H](CCC(N)=O)NC(=O)CNC(=O)[C@@H]1CCCN1C(=O)[C@H](CCCCN)NC(=O)[C@H](CC(C)C)NC(=O)[C@H](CO)NC(=O)[C@H](CC(C)C)NC(=O)[C@H](Cc1ccccc1)NC(=O)[C@H](Cc1c[nH]cn1)NC(=O)[C@@H](N)CCCCN)C(=O)N[C@@H](Cc1ccc(O)cc1)C(=O)O [compound 107] (H-KHFLSLKPGQPMY-OH; N-terminus and C-terminus assumed)	<90%	<90%	<90%	98.74%
CSCC[C@H](NC(=O)[C@@H]1CCCN1C(=O)[C@H](CCC(N)=O)NC(=O)CNC(=O)[C@H](Cc1ccc(O)cc1)NC(=O)[C@H](CC(N)=O)NC(=O)[C@H](CC(C)C)NC(=O)[C@H](CCCCN)NC(=O)[C@H](CC(C)C)NC(=O)[C@H](Cc1c[nH]c2ccccc12)NC(=O)[C@H](Cc1c[nH]cn1)NC(=O)[C@@H](N)Cc1c[nH]c2ccccc12)C(=O)N[C@@H](Cc1ccc(O)cc1)C(=O)O [compound 108] (H-WHWLKLNYGQPMY-OH; N-terminus and C-terminus assumed)	<90%	<90%	<90%	100%
CC[C@H](C)[C@H](NC(=O)[C@H](CCC(N)=O)NC(=O)[C@H](CC(C)C)NC(=O)[C@H](Cc1c[nH]c2ccccc12)NC(=O)[C@H](CCCNC(=N)N)NC(=O)[C@@H](N)CCCCN)C(=O)N[C@@H](CCCNC(=N)N)C(=O)N1CCC[C@H]1C(=O)NCC(=O)N[C@@H](CCC(=O)O)C(=O)N1CCC[C@H]1C(=O)N[C@@H](CCSC)C(=O)N[C@@H](Cc1ccc(O)cc1)C(=O)O [compound 109] (H-KRWLQIRPGEPMY-OH; N-terminus and C-terminus assumed)	<90%	<90%	<90%	98.64%
CC[C@H](C)[C@H](NC(=O)[C@H](CO)NC(=O)[C@H](CC(C)C)NC(=O)[C@H](Cc1c[nH]c2ccccc12)NC(=O)[C@H](Cc1c[nH]cn1)NC(=O)[C@@H](N)Cc1c[nH]c2ccccc12)C(=O)N[C@@H](CCCCN)C(=O)N1CCC[C@H]1C(=O)NCC(=O)N[C@@H](CCC(N)=O)C(=O)NCC(=O)N[C@@H](CCSC)C(=O)N[C@@H](Cc1ccc(O)cc1)C(=O)O [compound 110] (H-WHWLSIKPGQGMY-OH; N-terminus and C-terminus assumed)	–	–	<90%	97.94%
CSCC[C@H](NC(=O)[C@@H]1CCCN1C(=O)[C@H](CO)NC(=O)CNC(=O)[C@@H]1CCCN1C(=O)CNC(=O)[C@H](Cc1ccccc1)NC(=O)[C@H](CCC(N)=O)NC(=O)[C@@H](NC(=O)[C@H](Cc1c[nH]c2ccccc12)NC(=O)[C@H](Cc1c[nH]cn1)NC(=O)[C@@H](N)Cc1c[nH]c2ccccc12)C(C)C)C(=O)N[C@@H](Cc1ccc(O)cc1)C(=O)O [compound 111] (H-WHWVQFGPGSPMY-OH; N-terminus and C-terminus assumed)	<90%	<90%	<90%	96.65%
CSCC[C@H](NC(=O)[C@@H]1CCCN1C(=O)[C@H](CCC(N)=O)NC(=O)CNC(=O)[C@@H]1CCCN1C(=O)[C@H](CCCCN)NC(=O)[C@H](CC(C)C)NC(=O)[C@H](CCCNC(=N)N)NC(=O)[C@H](CC(C)C)NC(=O)[C@H](Cc1ccccc1)NC(=O)[C@H](Cc1c[nH]cn1)NC(=O)[C@@H]1CCCN1)C(=O)N[C@@H](Cc1ccc(O)cc1)C(=O)O [compound 112] (H-PHFLRLKPGQPMY-OH; N-terminus and C-terminus assumed)	–	–	<90%	99.57%
